How the values were obtained:
Type in all cases: in vivo
broad bean = test: Growth promotion effect on broad bean; details: 50 μm aqueous solution sprayed five consecutive days
Description: One month after seeding of broad bean, spraying of a 50 μm specific ketol fatty acid (I) aqueous solution was carried out for five consecutive days, and growth of the broad bean (plant width) was observed.

[1] = tested on: Dianthus caryophyllus (feeling scarlet); test: Growth promotion effect on Dianthus caryophyllus; details: 100 μm aqueous solution sprayed once, 5 mL per plant; FIG. 11
Description: Seedlings of Dianthus caryophyllus (feeling scarlet) were planted in early October, and then grown by means of a customary method. In mid-April of the next year, spraying of a 100 μm specific ketol fatty acid (I) aqueous solution was carried out (5 mL per plant), and then the height of the plants was measured.

[2] = tested on: morning glory (variety: murasaki); test: Growth promotion effect on morning glory; details: 100 μm aqueous solution sprayed; measured on the 16th day; N=8; FIG. 1
Description: Seeds of morning glory (variety: murasaki) (9 g) were subjected to concentrated sulfuric acid treatment for 20 minutes, and then allowed to stand under water flow overnight. Subsequently, the seeds were placed on wet sea sand such that the hila of the seeds were directed upward for 24 hours, to thereby produce roots. The seeds having roots were planted in sea sand at a position 1.5-2.0 cm below the surface of the sand, and then cultured under continuous light irradiation (for about five days).
The entire plant bodies of the morning glory having leaves produced through this culture were transferred into a culture solution [KNO2 (250 mg), NH4NO2 (250 mg), KH2PO4 (250 mg), MgSO4.7H2O (250 mg), MnSO4.4H2O (1 mg), Fe-citrate n-hydrate (6 mg), H3BO3 (2 mg), CuSO4.5H2O (0.1 mg), ZeSO4.7H2O (0.2 mg), Na2MoO4.2H2O (0.2 mg), and Ca(H2PO4)22H2O (250 mg) in distilled water (1,000 mL)].
Water or a 100 μm specific ketol fatty acid (I) aqueous solution was sprayed to the cultured morning glory, which was then placed in the dark overnight (for 14 hours). Thereafter, the morning glory was grown under continuous light irradiation at 25° C. for 16 days, and on the 16th day the height of the plant was measured (N=8). The average of the heights of the plants is shown in FIG. 1 [note: “I” shown in FIG. 1 refers to “specific ketol fatty acid (I)”; the same shall apply to the below-described Figs.].

geranium = test: Growth promotion effect on geranium; details: 80 μM aqueous solution, five consecutive days then once a week for six weeks; mottled and non-mottled leaf types; five-and-a-half months after last spraying; FIG. 8
Description: Two weeks after seeding of geranium, spraying of an 80 μM specific ketol fatty acid (I) aqueous solution was carried out for five consecutive days. Furthermore, three months after the start of the test, spraying of an 80 μM specific ketol fatty acid (I) aqueous solution was carried out for six weeks (once a week). Two types of geranium; i.e., geranium having mottled leaves and geranium having leaves of no mottles, were subjected to the test. Five-and-a-half months after the last spraying, the size of the leaves was measured.

digitalis = test: Growth promotion effect on digitalis; details: 80 μm aqueous solution, five consecutive days then once a week for six weeks; five-and-a-half months after spraying; FIG. 6
Description: Two weeks after seeding of digitalis, spraying of an 80 μm specific ketol fatty acid (I) aqueous solution was carried out for five consecutive days. Furthermore, three months after the start of the test; spraying of an 80 μm specific ketol fatty acid (I) aqueous solution was carried out for six weeks (once a week). Five-and-a-half months after the six-week spraying, the size of leaves and the plant height were measured.

[3] = tested on: carpophores of Lentinus edodes; test: Growth promotion effect on carpophore of Lentinus edodes (Berk.) Singer; details: 5 mL per piece, five days culture at 18° C.
Description: Wood (Quercus serrata) containing hyphae of Lentinus edodes was cut into pieces having a length of about 15 cm, and the pieces were immersed in 10° C. water for 24 hours, after which the pieces were allowed to stand in a container of high humidity. Subsequently, specific ketol fatty acid (I) aqueous solutions (concentration: 0 μm, 3 μM, 30 μm, and 100 μM) were applied through spraying to the resultant pieces (six pieces for each group). Each solution was applied to each group (5 mL for each piece). Subsequently, the carpophores of Lentinus edodes were cultured in the same container at 18° C. under weak light irradiation. This culture was continued for five days, and then growth of the carpophores of Lentinus edodes was observed. FIG. 16 is a photograph showing the carpophores of Lentinus edodes cultured in the groups (note: {circumflex over (1)} application of the specific ketol fatty acid (I) (0 μM), (2) (3 μM), (3). (30 μM), and (4) (100 μM)). The average of the carpophores per piece was 0 in the 0 μM application group, 0.17 in the 3 μM application group, 1.0 in the 30 μM application group, and 1.0 in the 100 μM application group.

cyclamen = test: Growth promotion effect on cyclamen; details: 50 μm aqueous solution sprayed five consecutive days, four months after seeding; observed for 48 days; FIG. 5
Description: Four months after seeding of cyclamen, spraying of a 50 μm specific ketol fatty acid (I) aqueous solution was carried out for five consecutive days. […] The plant width and the number of leaves were both increased.

chrysanthemum = test: Growth promotion effect on chrysanthemum; details: 80 μM aqueous solution, five consecutive days then once a week for six weeks; four months after the last spraying; FIG. 7
Description: Two weeks after seeding of chrysanthemum, spraying of an 80 μm specific ketol fatty acid (I) aqueous solution was carried out for five consecutive days. Furthermore, three months after the start of the test, spraying of an 80 μM specific ketol fatty acid (I) aqueous solution was carried out for six weeks (once a week). Bolting was not observed at a nutrition growth stage of the chrysanthemum. Four months after the last spraying, the plant width was measured.

strawberry seedlings = test: Plant dormancy preventive test on strawberry
Description: When strawberry seedlings are exposed directly to low temperature conditions in winter, the seedlings enter dormancy, and growth of the seedlings is stopped. Whether or not the present plant activator exerts the effect of preventing dormancy was evaluated.
Specific ketol fatty acid (I) aqueous solutions [concentration: 10 μM, 100 μM, and 0 μM (control)] were applied through spraying to strawberry seedlings on August 27 (at day 0), September 3, and September 8. […] In the control group, no flower bud formation was observed.
At the one hundred and eighth day, percent dormancy (percentage of dormant plants—which are plants in which growth of small leaf buds with markings is not observed 15 days after a marking was applied to the leaf buds—with respect to the entirety of the test plants) was measured. As a result, in the control group, dormancy of the entire plants was observed.

CC/C=C\C/C=C\CC(=O)C(O)CCCCCCCC(=O)O (stereo not shown) [specific ketol fatty acid (I), 9-hydroxy-10-oxo-12(Z),15(Z)-octadecadienoic acid]
duration of growth promotion effect (broad bean): maintained 48 days after the start of the test
growth of the broad bean (plant width) (broad bean; one month after seeding, FIG. 3): exerts the effect of promoting growth of the broad bean
height of the plants [1]: growth of the Dianthus caryophyllus plant was promoted
height of the plant [2]: becomes larger
size of the leaves (geranium): growth of the leaves of these two types is promoted
plant height (digitalis): increased
size of leaves (digitalis): increased
average of the carpophores per piece ([3]; 3 μM sprayed): 0.17
average of the carpophores per piece ([3]; 30 μM sprayed): 1.0
average of the carpophores per piece ([3]; 100 μM sprayed): 1.0
number of leaves (cyclamen): increased
plant width (cyclamen): increased
plant width (chrysanthemum): increased significantly
formation of flower buds (strawberry seedlings; 10 μM and 100 μM aqueous solutions sprayed three times, cultured outdoors): flower bud formation proceeded, and the number of flowers increased
percent dormancy (strawberry seedlings; 10 μM and 100 μM sprayed, at the one hundred and eighth day, FIG. 14): dormancy of strawberry was prevented
dormancy preventive effect, low vs high concentration (strawberry seedlings; 10 μm vs 100 μM, FIG. 14): more significant in the group in which the specific ketol fatty acid (I) of low concentration (10 μm) was applied
